Laboratory results taken from the METLIN SMRT retention time set (Domingo-Almenara et al. 2019).

Test: gradient 5% acetonitrile 3 min, to 50% in 2 min, to 85% in 15 min, held 3 min, 100 µL/min
Conditions: column: Zorbax Extend-C18 2.1 x 50 mm; eluents: water / acetonitrile, 0.1% formic acid
Summary of the method: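 Using water and acetonitrile that each contained 0.1% formic acid, mixtures of ~100 pure standards were separated at 100 μL/min on a Zorbax Extend-C18 column (2.1 × 50 mm, 1.8 μm). The HPLC fed a quadrupole time-of-flight mass spectrometer working in positive and negative ionization mode, with dead and dwell volumes of 40 μL and 900 μL. Data were acquired over 3 months. Retention time was read from computationally picked adduct peaks after manual inspection of each.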

SMILES | RP-LC retention time
COc1ccc(CN2CC3(CCN(S(=O)(=O)C(C)C)CC3)C2=O)cc1 | 787 s
O=C(C1=CN(c2cc(Cl)cc(Cl)c2)c2cc(F)ccc2S1(=O)=O)N1CCOCC1 | 875 s
Cc1cccc(-c2nnc(CC(=O)NCC(C)C)o2)c1 | 790 s
CCOC(=O)c1c(C)oc2ncnc(NCC3CCN(Cc4ccccc4F)CC3)c12 | 694 s
Cc1cccc(CN2CCCn3nc(C(=O)NCc4ccc5c(c4)OCO5)cc3C2=O)c1 | 861 s
Cc1ccccc1S(=O)(=O)Nc1ccc(C2(C(=O)NCC3CCCO3)CC2)cc1 (stereo not drawn) | 797 s
COc1ccccc1CCN1CC(=O)N(c2cccc(C)c2)[C@@H]2CS(=O)(=O)C[C@@H]21 | 850 s
CC(NC(=O)Cn1c(C(F)(F)F)nc2ccccc21)c1ccc2c(c1)OCCCO2 (stereo not drawn) | 842 s
Cc1ccc(-n2c(N3CCCC(C(=O)NCCC(C)C)C3)nc3ccsc3c2=O)cc1 (stereo not drawn) | 955 s
Cc1nc(-c2cc(S(=O)(=O)Nc3ccc(Br)cc3)c(C)s2)cs1 | 1070 s
O=C1C(Cl)=C(NCCc2ccccc2)C(=O)c2ccccc21 | 1190 s
CCSc1nnc(NC(=O)CCCn2nc(-c3ccc(OC)cc3)ccc2=O)s1 | 730 s
Cn1c(=O)c2ccn(CC(=O)N3CCN(c4ccc(Cl)cc4)CC3)c2n(C)c1=O | 752 s
O=C(CN1C(=O)NC(c2ccc(Cl)cc2)C2=C1COC2=O)Nc1ccc(C(F)(F)F)cc1 (stereo not drawn) | 895 s
CCNC(=O)N1CCCC(c2cccc(C(=O)NCc3ccc(C)c(C)c3)c2)C1 (stereo not drawn) | 866 s
CC(C)NC(=O)c1nc(-c2ccnc(N3CCOCC3)c2)no1 | 671 s
Cc1ccc2oc(=O)c3cc(C(=O)N4CCN(c5ccccn5)CC4)sc3c2c1 | 664 s
Cc1cccc(OCc2nc(-c3ccnc(N4CCCC4)c3)no2)c1 | 725 s
Cc1ccccc1NC(=O)CN1CCc2[nH]c3c(C)cc(F)cc3c(=O)c2C1 | 608 s
O=C(NCc1ccc(F)cc1)N1CCCN(c2nc3cccnc3s2)CC1 | 687 s
Nc1ncnc2sc3c(c12)CCCC3 | 588 s
O=C(NCCC1=CCCCC1)c1csc(Nc2ncccn2)n1 | 797 s

SMILES | RP-LC retention time
CCOC(=O)C1CCCN(CC(=O)Nc2nc(-c3ccccc3)cs2)C1 (stereo not drawn) | 690 s
O=C(CC1CCCC1)N1[C@H]2CC[C@@H]1c1cnc(-c3ccc(F)cc3)nc1C2 | 1060 s
O=C(CCCSc1ccc(NC(=O)c2cccs2)nn1)NCc1ccco1 | 714 s
CCCC(=O)Nc1ccc2c(c1)Sc1ncccc1C(=O)N2CC | 724 s
CC(C)(C)C(=O)N1CCC(OC2CCN(Cc3ccccc3)CC2)CC1 | 638 s
Nc1cc(C2CCN(C(=O)COc3ccc(F)cc3)CC2)no1 | 656 s
Cn1c(C(=O)N2CCN(c3ncccn3)CC2)cc2c(-c3cccs3)nn(-c3ccccc3)c21 | 1030 s
COc1cc2ncc(C(=O)c3ccccc3)c(N3CCN(C)CC3)c2cc1OC | 556 s
CC(C)Cn1c(=O)c(C(=O)NCCCc2ccccc2)nc2cccnc21 | 888 s
Cc1ccc(Nc2ncccc2S(N)(=O)=O)cc1 | 795 s
O=C(Cn1nc2c3ccc(Cl)cc3ncn2c1=O)Nc1ccc(F)cc1 | 744 s
Cc1ccc(-c2ncc(C(=O)Nc3ccc(Br)cc3)c(-c3ccncc3)n2)cc1 | 994 s
CSc1ccc(N2C(C)=NS(=O)(=O)c3cccnc32)cc1 | 811 s
Nc1nc(NCc2ccccc2Cl)ncc1[N+](=O)[O-] | 778 s
CCOC(=O)c1cnc(Nc2nc(C)c3cc(OC)ccc3n2)nc1C | 681 s
O=C(Cn1cccc1-c1nnc(-c2ccccc2)o1)N1CCN(C(=O)c2ccco2)CC1 | 774 s
COCC(=O)N1CCc2c([nH]c3ccccc23)C1c1ccc(C)cc1 (stereo not drawn) | 971 s
CSC[C@H]1O[C@@H](n2cnc3c(N)ncnc32)[C@@H](O)[C@H]1O | 575 s
COc1ccc(C(=O)N2C[C@@H]3C[C@H](NC(=O)c4cccs4)[C@H]2C3)c(C)c1 | 628 s
COc1ccc2nc(NC(=O)C3CCN(C(=O)C4Sc5ccccc5NC4=O)CC3)sc2c1 (stereo not drawn) | 775 s
CCOCCCNC(=O)CCc1nnc2ccc(-c3ccc(C)c(C)c3)nn12 | 754 s
O=C1CC(c2noc(CCc3ccccc3)n2)CN1c1ccccc1 (stereo not drawn) | 956 s

SMILES | RP-LC retention time
COCc1cn(C2CN(C(=O)Cc3c[nH]c4ccccc34)C2)nn1 | 634 s
CCc1ccc(NC(=O)Cn2c(C(C)C)nc3c(c2=O)CCN(Cc2ccccc2)C3)cc1 | 705 s
COc1ccc(-c2ncc3c(n2)CCN(C(=O)c2ccc(Cl)cc2)C3)cc1 | 969 s
Cc1cccc(NC(=O)N2CCc3nc(-c4ccc(Cl)cc4)ncc3C2)c1C | 660 s
Cc1ccc(C(=O)NCc2nc(-c3ccc4c(c3)ncn4C3CCCC3)no2)cc1 | 719 s
CCOc1ccc(NC(=O)Cc2nnc(-c3ccc4ncccc4c3)o2)cc1 | 718 s
Cc1ncsc1CN1CCc2nn(Cc3ccccc3)c(=O)n2CC1 | 604 s
O=C(O)c1cnc(NCc2cccnc2)nc1-c1ccc(Cl)cc1 | 606 s
CC1=C(C(=O)N2CCOCC2)C(c2ccc(Cl)cc2)C2=C(CC(C)(C)CC2=O)N1 (stereo not drawn) | 710 s
O=C(NCc1cccc(C(F)(F)F)c1)C1CCN(c2cnc3nccnc3c2)CC1 | 754 s
CCOc1ccccc1NC(=O)C1CCN(S(=O)(=O)c2cc(-c3noc(C)n3)cs2)CC1 | 996 s
Cc1ccc(-c2ccc(N3CCCC(C(=O)N4CCC5(CC4)OCCO5)C3)nn2)cc1C (stereo not drawn) | 684 s
O=C(NC1CCCCC1)NC1CCN(C(=O)C2CC2)C1 (stereo not drawn) | 663 s
O=S(=O)(Cc1ccccc1Cl)N(Cc1ccsc1)C1CC1 | 1000 s
O=C(c1cccs1)N1CCC2(CC1)NC(=O)N(Cc1ccccc1Cl)C2=O | 821 s
O=C(O)C1CN(CCCP(=O)(O)O)CCN1 (stereo not drawn) | 627 s
O=C(NCc1ccc(F)cc1)C1CCN(C(=O)c2ncn3c2COC(c2ccc(Cl)cc2)C3)CC1 (stereo not drawn) | 842 s
CC(=O)c1cccc(NC(=O)Cn2c(-c3ccccc3)nc(C)cc2=O)c1 | 912 s
O=C(O)c1cc(-c2ccccc2F)n[nH]1 | 630 s
CCc1nc2ncc(-c3ccnc(N4CCN(C)CC4)n3)c(C)n2n1 | 562 s
CCCN1C(=O)c2c(C(=O)NCc3cccc(C)c3)ncn2CC1(C)C(=O)NC1CCCC1 (stereo not drawn) | 851 s
COc1ccc(NC(=O)N2CCN(CC(=O)c3c(C)n(C)c4ccccc34)CC2)cc1 | 656 s

SMILES | RP-LC retention time
CCOc1cc2c(cc1OCC)C1C(C(=O)NCCN3CCOCC3)c3ccccc3C(=O)N1CC2 (stereo not drawn) | 615 s
COCCNC(=O)N1CCCN(C2=NS(=O)(=O)C(c3ccc(C)c(C)c3)=C2C)CC1 | 738 s
COc1ccc(OC)c(NC(=O)c2[nH]c3cc(C)sc3c2CN2CCOCC2)c1 | 705 s
Cc1ccc(-c2noc(CSc3nc4cc5c(cc4c(=O)n3Cc3ccncc3)OCO5)n2)cc1 | 845 s
Cc1ccc(NC(=O)c2cccc([N+](=O)[O-])c2O)c([N+](=O)[O-])c1 | 982 s
O=C(Cn1nc2c3c4c(sc3ncn2c1=O)CCCC4)N1CCc2ccccc2C1 | 1140 s
CCOc1ccccc1NC(=O)Cc1csc2nc(-c3ccc(OC)c(OC)c3)cn12 | 793 s
O=C(NCCc1ccccc1)c1nc(Cn2c(=O)oc3ccccc32)no1 | 888 s
COc1cccc(CNC(=O)N2CCC3(C2)C(=O)N(C)c2ccc(OC)cc23)c1 (stereo not drawn) | 704 s
CCOC(=O)c1c(C)[nH]c(C(=O)N2CCC(CC(=O)NCc3ccc(N(C)C)cc3)CC2)c1C | 620 s
O=c1c2sccc2n(Cc2nc(-c3ccccc3)no2)c(=O)n1Cc1ccccc1 | 985 s
Cc1ccc(-n2ncc3c(=O)n(Cc4nc(-c5ccc(Cl)cc5)no4)cnc32)cc1 | 1160 s
CNC(=O)c1ccsc1NC(=O)c1coc2ccccc2c1=O | 709 s
CC(C)(C)c1csc(-c2csc(S(=O)(=O)NCc3cccs3)c2)n1 | 1180 s
CCc1noc(NC(C)=O)c1-c1ccc(OC)c(S(=O)(=O)NC(C)CC)c1 (stereo not drawn) | 746 s
O=C1CCCc2cc(S(=O)(=O)N3CCC(C(=O)NCc4ccccc4Cl)CC3)ccc2N1 | 760 s
O=C(Cc1cccs1)N1CCC2(CC1)N=C(c1ccc(Cl)cc1)NO2 | 859 s
COc1ccccc1NC(=O)N(C)CCc1noc(COc2ccc(F)cc2)n1 | 907 s
Cc1cc(Cl)ccc1NC1=NS(=O)(=O)c2ccccc21 | 834 s
COc1ccc(C2CC(=O)N(CC(=O)N3CCOCC3)c3ccccc3S2)cc1OC (stereo not drawn) | 736 s
C[C@H]1CN(C(=O)c2ccc(C#N)cc2)C[C@@H]1c1nc(-c2cccnc2)no1 | 717 s
O=C(C1=CN(c2ccccc2)c2cc(Cl)ccc2S1(=O)=O)N1CCCCC1 | 930 s
